According to patent US20120190751A1, “COMPOUNDS FOR TREATMENTS OF INFLAMMATION” (ANA-MAR AB, priority 2009, published 2012):
Counter-ions that a name gives are not always drawn.

tested on: rat synoviocytes; test: IL-6 release from LPS-stimulated rat synoviocytes; type: cell-based; settings: 1 μM 5-HT + LPS 50 ng/ml; test substance 0.1, 1 or 10 μM; 72 hours; FIG. 7A
Experimental: Pannus from the inflamed knee of rats with antigen-induced arthritis (AIA) (see description of this model below; Andersson, S. E et al., (1998), J. Rheumatology 25: 1772-1777) was isolated three to five days after challenge, stored in PBS supplemented with 100 U/ml Penicillin-Streptomycin (PEST, Invitrogen Corporation) and 2.5 μg/ml Fungizone (Amphotericin B, Invitrogen) until it was further processed within a couple of hours. The PBS was discarded and the tissue cut in small pieces followed by digestion in a collagenase solution (400 U/ml; type 1 CLS-1, Worthington) for 3 hours at 37° C., 5% CO2. The suspension was filtered through a nylon mesh (70 μm), washed with tissue culture medium (RPMI-1640 with L-glutamine, Invitrogen, supplemented with 10% fetal bovine serum (FBS) and 100 U/ml PEST and 2.5 μg/ml Fungizone) and centrifuged (257 g). The cells were resuspended in tissue culture medium and seeded in cell culture flasks (T25, TPP). After overnight culture, nonadherent cells were removed by exchanging the medium, the cells were incubated at 37° C., 5% CO2, the medium was exchanged every third day until confluence was reached (7-10 days). The culture consisted of a mixed cell population with the principal constituents being fibroblasts and macrophages (Andersson, S. E. et al. (2000), Eur. J. Pharm. Sci 9: 333-343).
The cells were counted and reseeded at a density of 10000 cells/0.2 ml in 96-well cell culture plates (Nunc). After overnight culture the cells were stimulated with 50 ng/ml Lipopolysaccharide (LPS, E. coli 055:B5, Sigma) with simultaneous addition of 0.1, 1 and 10 μM N-(2-chloro-3,4-dimethoxybenzylideneamino)guanidine and 1 μM of 5-HT2 receptor agonists (triplicates). The cells were incubated for 72 hours after which the supernatants were collected and analyzed for IL-6 (OptEIA™ Set Rat IL-6). The effect of treatment on cell viability was determined using the cell proliferation reagent, WST-1 (Roche Diagnostics).
Inflamed knee joints of rats with antigen-induced arthritis (AIA) were dissected four days after intra-articular challenge with antigen. Freshly isolated pannus tissue was collected in phosphate-buffered saline (PBS) supplemented with 100 U/ml penicillin, streptomycin (PEST, Invitrogen) and 2.5 μg/ml Fungizone (Amphotericin B, Invitrogen), finely minced with a pair of scissors and digested with 400 U/ml collagenase (type 1 CLS-1, Worthington) in RPMI 1640 (Gibco) supplemented with PEST and fungizone (2.5 μg/ml) for 3 hours. The cell suspension was filtered through a 70 μm nylon mesh and the cells collected by centrifugation at 257×g, 10 min. The cells were resuspended in RPMI 1640 supplemented with 10% FBS (Gibco), PEST and fungizone (culture medium), plated in T25 flasks (TPP Cat#90026). After overnight incubation nonadherent cells were removed and the culture medium was replaced every third day until the cells approached confluency (normally achieved within 7-10 days). At near-confluency, the cells were washed with PBS and harvested by trypsination. After washing in PBS the cells were resuspended in culture medium and seeded at 10.000 cells/well/0.2 ml in 96 well plates (Nunc cat#167008). After overnight culture the culture medium was replaced with fresh medium and 50 ng/ml LPS (Sigma, L6529) together with different concentrations of 5-HT, 5-HT2 receptor agonists and/or antagonists and N-(2-chloro-3,4-dimethoxybenzylideneamino)guanidine. The cells were incubated for 72 hours after which the supernatants were collected and analyzed for IL-6 (BD OptEIA™ Set). The effect of treatment on cell viability was determined using the cell proliferation reagent, WST-1 (Roche Diagnostics). In another experiment rat synoviocytes were incubated with 50 ng/ml LPS for 2 or 22 hours were after the levels of 5-HT was analysed in the cell culture medium using a Serotonin ELISA kit (IBL International, RE59121). We also incubated rat synoviocytes with 5-HT (10 μM) and measured the gene expression of 5-HT2B and 5-HT2C.

Row | SMILES | IL-6 release induced by 5-HT and LPS
1 | CC(C)c1cc(-c2ccc(F)c3ccccc23)nc(N)n1 [RS-127445] | clearly reduced the IL-6 release
2 | Cc1cc2c(cc1Cl)N(C(=O)Nc1ccc(Oc3cccnc3C)nc1)CC2 [SB 242084, 6-chloro-5-methyl-1-[6-(-methylpyridin-3-yloxy)pyridin-3-ylcarbomyl]indoline] | clearly reduced the IL-6 release

same assay, conditions: 1 μM agonist in the presence of LPS 50 ng/ml; 72 hours

Row | SMILES | IL-6 release on agonist stimulation
3 | CC(N)Cc1c[nH]c2ccc(OCc3cccs3)cc12 (stereo not drawn) [BW 723C86] | induces a response in IL-6 production
4 | NCCc1c[nH]c2ccc(O)cc12 [Example 5-HT, 5-Hydroxytryptamine] | clear increase in IL-6 release

tested on: antigen-induced arthritis; test: not given; settings: Andersson et al. 2000; cited from earlier work

Row | SMILES | effect in the AIA model (literature)
5 | CN(Cc1cnc2nc(N)nc(N)c2n1)c1ccc(C(=O)N[C@@H](CCC(=O)O)C(=O)O)cc1 [methotrexate] | anti-arthritic effect

biological target: 5HT2B receptor (Homo sapiens, UniProt P41595); test: not given; settings: 5HT2B receptor antagonists, Table 1; cited from earlier work
Sequence (P41595 whole entry): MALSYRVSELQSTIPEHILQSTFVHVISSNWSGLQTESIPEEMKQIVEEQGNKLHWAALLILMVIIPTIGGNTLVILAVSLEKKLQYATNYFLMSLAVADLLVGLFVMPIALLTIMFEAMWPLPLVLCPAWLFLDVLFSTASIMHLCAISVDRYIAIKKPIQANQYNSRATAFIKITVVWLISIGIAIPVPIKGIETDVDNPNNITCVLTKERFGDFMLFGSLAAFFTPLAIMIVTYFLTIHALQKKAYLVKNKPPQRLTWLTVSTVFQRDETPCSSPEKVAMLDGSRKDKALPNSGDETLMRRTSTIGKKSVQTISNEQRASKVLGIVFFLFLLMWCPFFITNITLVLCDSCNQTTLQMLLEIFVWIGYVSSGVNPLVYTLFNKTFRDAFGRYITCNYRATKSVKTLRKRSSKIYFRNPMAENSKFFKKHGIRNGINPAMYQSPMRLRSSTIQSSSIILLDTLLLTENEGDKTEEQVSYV

Row | SMILES | Affinity
6 | CN1CCC2CN3CCc4cccc(c43)C2C1 (single isomer, unassigned; (+)) [SDZ SER-082, (+)-cis-4,5,7a,8,9,10,11,11a-octahydro-7H-10-methylindolo[1,7-bc][2,6]-naphthyridine] | 6.7 pKi
7 | Cc1cc([N+](=O)[O-])c(N2CCN(Cc3ccccc3)CC2)cc1N [EGIS-7625, 1-benzyl-4-[(2-nitro-4-methyl-5-amino)-phenyl]-piperazine] | 9.0 pKi
8 | CC(O)C(C)OC(=O)C1CC2c3cccc4[nH]cc(c34)CC2N(C)C1 (stereo not drawn) [LY86057] | 7.9 pKi
9 | OC(c1ccccc1)C1CCN(CCc2ccccc2)CC1 (stereo not drawn) [MDL-11,939, α-phenyl-1-(2-phenylethyl)-4-piperidinemethanol] | 5.5 pKi
10 | COc1cc(OC)c(C(=O)CCCCN2CCC3(CC2)NC(=O)NC3=O)cc1NS(=O)(=O)c1ccc(C(F)(F)F)cc1 [RS-102221] | 6.0-6.1 pKi
11 | CC(C)c1cc(-c2ccc(F)c3ccccc23)nc(N)n1 [RS-127445-190] | 9.5 pKi
12 | Cn1ccc2cc(NC(=O)Nc3cccnc3)ccc21 [SB 200646, N-(1-Methyl-1H-indol-5-yl)-N′-3-pyridinylurea] | 7.4 pKi
13 | Cn1ccc2cc3c(cc21)CCN3C(=O)Nc1cccnc1 [SB 206553, 5-methyl-1-(3-pyridylcarbamoyl)-1,2,3,5-tetrahydrolpyrrolo[2,3-f]indole] | 7.6-8.5 pKi
14 | Cc1cc2c(cc1Cl)N(C(=O)Nc1cccc3ncccc13)CC2 [SB 215505, 6-chloro-5-methyl-1-(5-quinolylcarbamoyl)indoline] | 8.3 pKi
15 | CSc1cc2c(cc1C(F)(F)F)N(C(=O)Nc1cccnc1)CC2 [SB 221284, 5-(methylthio)-1-(3-pyridylcarbamoyl-6-trifluoromethyl)indoline] | 8.6 pKi
16 | Cc1nc(-c2ccc(-c3ccc(C(=O)N4CCc5cc6c(cc54)C4(CCN(C)CC4)CO6)cc3)c(C)c2)no1 [SB 224289, 1′-methyl-5-[[2′-methyl-4′-(5-methyl-1,2,4-oxadiazol-3-yl)biphenyl-4-yl]carbonyl]-2,3,6,7-tetrahydrospiro[furo[2,3-f]indole-3,4′-piperidine hydrochloride] | 5.9 pKi
17 | COc1cc2c(cc1C(F)(F)F)N(C(=O)Nc1cc(F)cc(-c3cccnc3)c1)CC2 [SB 228357, 1-5[-fluoro-3-(3-pyridyl)phenyl-carbamoyl]-5-methoxy-6-trifuoromethylindoline] | 8.0-8.1 pKi
18 | COc1ccc2cccc(CCNC(C)=O)c2c1 [agomelatine, N-[2-(7-methoxynaphthalen-1-yl)ethyl]acetamide] | 6.6 pKi
19 | CC(C)n1cc2c3c(cccc31)[C@H]1CC(C(=O)NC3CCCCC3)CN(C)[C@@H]1C2 (stereo partly drawn) [amesergide, N-Cyclohexyl-1-isopropyl-6-methylergoline-8-carboxamide] | 8.0 pKi
20 | CN1CCc2cccc3c2C1Cc1ccc(O)c(O)c1-3 (stereo not drawn) [apomorphine, 5,6,6a,7-Tetrahydro-6-methyl-4H-dibenzo[de,g]quinolin-10,11-diol] | 6.9 pKi
21 | CC(C)C[C@H]1C(=O)N2CCC[C@H]2[C@]2(O)O[C@](NC(=O)[C@@H]3C=C4c5cccc6[nH]c(Br)c(c56)C[C@H]4N(C)C3)(C(C)C)C(=O)N12 [bromocriptine] | 7.3 pKi
22 | NCCC(Oc1ccc(C(F)(F)F)cc1)c1ccccc1 (stereo not drawn) [norfluoxetine] | 5.3 pKi
23 | CCCCN1CCC(CNC(=O)c2c3n(c4ccccc24)CCCO3)CC1 [piboserod, N-((1-Butyl-4-piperidyl)-methyl)-3,4-dihydro-2H-(1,3)oxazino(3,2-a)-indole-10-carboxamide] | 6.6 pKi
24 | c1cnc(N2CCN(Cc3ccc4c(c3)OCO4)CC2)nc1 [piribedil, 2-[4-(1,3-benzodioxol-5-ylmethyl)piperazin-1-yl]pyrimidine] | 5.9 pKi
25 | Cc1nc2sccn2c(=O)c1CCN1CCC(=C(c2ccc(F)cc2)c2ccc(F)cc2)CC1 [ritanserin, 4-[2-[4-[bis(4-fluorophenyl)methylidene]-1-piperidyl]ethyl]-3-methyl-9-thia-2,6-diazabicyclo[4.3.0]nona-1,3,7-trien-5-one] | 8.7-9.2 pKi
26 | Oc1ccc2[nH]cc(CCCCN3CC=C(c4ccccc4)CC3)c2c1 [roxindole, 3-[4-(4-phenyl-3,6-dihydro-2H-pyridin-1-yl)butyl]-1H-indol-5-ol] | 7.5 pKi
27 | COc1cccc(CCc2ccccc2OCC(CN(C)C)OC(=O)CCC(=O)O)c1 (stereo not drawn) [sarpogrelate, 4-[1-dimethylamino-3-[2-[2-(3-methoxyphenyl)ethyl]phenoxy]-propan-2-yl]oxy-4-oxo-butanoic acid] | 6.6 pKi
28 | O=C(CCCN1CCC2(CC1)C(=O)NCN2c1ccccc1)c1ccc(F)cc1 [spiperone, 8-[4-(4-fluorophenyl)-4-oxo-butyl]-1-phenyl-1,3,8-triazaspiro[4.5]decan-4-one] | 5.9-6.5 pKi
29 | O=C1NCN(c2ccccc2)C12CCN(CC1COc3ccccc3O1)CC2 (stereo not drawn) [spiroxatrine, 8-(7,10-dioxabicyclo[4.4.0]deca-1,3,5-trien-8-ylmethyl)-4-phenyl-2,4,8-triazaspiro[4.5]decan-1-one] | 6.3-6.8 pKi
30 | CCN(CC)C(=O)N[C@H]1C[C@@H]2c3cccc4[nH]cc(c34)C[C@H]2N(C)C1 [terguride, N,N-diethyl-N′-[(8α)-6-methylergolin-8-yl]urea] | 8.2 pKi

same assay, conditions: cited from earlier work

Row | SMILES | Affinity
31 | CC(O)C(C)OC(=O)[C@@H]1C[C@@H]2c3cccc4c3c(cn4C(C)C)C[C@H]2N(C)C1.O=C(O)/C=C\C(=O)O (stereo partly drawn) [LY53857, 6-Methyl-1-(1-methylethyl)ergoline-8β-carboxylic acid 2-hydroxy-1-methylpropyl ester maleate salt] | 8.2 pKi
32 | CC(C)c1cc(-c2ccc(F)c3ccccc23)nc(N)n1 [RS-127445] | 9.0 pKi
33 | Cc1cc2c(cc1Cl)N(C(=O)Nc1ccc(Oc3cccnc3C)nc1)CC2 [SB 242084, 6-chloro-5-methyl-1-[6-(-methylpyridin-3-yloxy)pyridin-3-ylcarbomyl]indoline] | 6.8-7.0 pKi
